According to ChEMBL document CHEMBL5360532, “Current scenario of quinolone hybrids with potential antibacterial activity against ESKAPE pathogens” (Eur J Med Chem, 2023):
≈ marks a conversion by molar mass, not a printed value.

Assays:
Type in all cases: functional
Staphylococcus aureus [1] = test: Antibacterial activity against methicillin resistant Staphylococcus aureus assessed as bacterial growth inhibition measured after 24 hrs by serial dilution method
Escherichia coli [2] = test: Antibacterial activity against Escherichia coli assessed as bacterial growth inhibition measured after 24 hrs by serial dilution method
[3] = test system: Mycobacterium tuberculosis; test: Antimycobacterial activity against Mycobacterium tuberculosis H37Rv assessed as zone of inhibition at 50 mg/ml by agar well diffusion assay; conditions: read-out: IZ
Staphylococcus aureus [4] = test: Antibacterial activity against Staphylococcus aureus assessed as zone of inhibition at 50 mg/ml by agar well diffusion assay; conditions: read-out: IZ
Escherichia coli [5] = test: Antibacterial activity against Escherichia coli assessed as zone of inhibition at 50 mg/ml by agar well diffusion assay; conditions: read-out: IZ
Enterococcus faecalis = test: Antibacterial activity against Enterococcus faecalis assessed as zone of inhibition at 50 mg/ml by agar well diffusion assay; conditions: read-out: IZ
Streptococcus pneumoniae = test: Antibacterial activity against Streptococcus pneumoniae assessed as zone of inhibition at 50 mg/ml by agar well diffusion assay; conditions: read-out: IZ
[6] = test system: Mycobacterium tuberculosis; test: Antimycobacterial activity against Mycobacterium tuberculosis H37Rv assessed as bacterial growth inhibition
Staphylococcus aureus [7] = test: Potency index, ratio of ciprofloxacin MIC to test compound MIC for antimicrobial activity against Staphylococcus aureus assessed as bacterial growth inhibition by agar cup diffusion assay
Staphylococcus aureus [8] = test: Antibacterial activity against Staphylococcus aureus assessed as bacterial growth inhibition by broth microdilution assay
[9] = test system: Mycobacterium tuberculosis; test: Antimycobacterial activity against Mycobacterium tuberculosis H37Rv assessed as bacterial growth inhibition by broth microdilution assay
[10] = test system: Mycobacterium tuberculosis; test: Potency index, ratio of rifampicin MIC to test compound MIC for antimycobacterial activity against Mycobacterium tuberculosis H37Rv assessed as bacterial growth inhibition by broth microdilution assay
[11] = test system: Mycobacterium tuberculosis; test: Potency index, ratio of isoniazid MIC to test compound MIC for antimycobacterial activity against Mycobacterium tuberculosis H37Rv assessed as bacterial growth inhibition by broth microdilution assay
Escherichia coli [12] = test: Antibacterial activity against Escherichia coli ATCC 25922 assessed as bacterial growth inhibition by agar disc diffusion assay
Pseudomonas aeruginosa [13] = test: Antibacterial activity against Pseudomonas aeruginosa ATCC 27853 assessed as bacterial growth inhibition by agar disc diffusion assay
Staphylococcus aureus [14] = test: Antibacterial activity against Staphylococcus aureus ATCC 25923 assessed as bacterial growth inhibition by agar disc diffusion assay
Staphylococcus aureus [15] = test: Antibacterial activity against Staphylococcus aureus clinical isolate 1 assessed as bacterial growth inhibition by agar disc diffusion assay
Escherichia coli [16] = test: Antibacterial activity against Escherichia coli clinical isolate 1 assessed as bacterial growth inhibition by agar disc diffusion assay
Pseudomonas aeruginosa [17] = test: Antibacterial activity against Pseudomonas aeruginosa clinical isolate 1 assessed as bacterial growth inhibition by agar disc diffusion assay
Alternaria = test: Antifungal activity against Alternaria assessed as fungal growth inhibition measured after 7 days by agar disc diffusion assay; conditions: 168 h, time 7 day
[18] = test system: Fusarium oxysporum f. sp. lycopersici; test: Antifungal activity against Fusarium oxysporum f. sp. lycopersici assessed as fungal growth inhibition measured after 7 days by agar disc diffusion assay; conditions: 168 h, time 7 day
Escherichia coli [19] = test: Antibacterial activity against Escherichia coli assessed as bacterial growth inhibition by broth microdilution assay
Pseudomonas aeruginosa [20] = test: Antibacterial activity against Pseudomonas aeruginosa assessed as bacterial growth inhibition by broth microdilution assay
Acinetobacter baumannii = test: Antibacterial activity against Acinetobacter baumannii assessed as bacterial growth inhibition by broth microdilution assay
Klebsiella pneumoniae [21] = test: Antibacterial activity against Klebsiella pneumoniae assessed as bacterial growth inhibition by broth microdilution assay
Escherichia coli [22] = test: Antibacterial activity against Escherichia coli ATCC35218 assessed as bacterial growth inhibition measured after 18 to 24 hrs inhibition by broth microdilution assay; conditions: time 18-24 hrs
Escherichia coli [23] = test: Antibacterial activity against Escherichia coli assessed as bacterial growth inhibition measured after 18 to 24 hrs by two fold serial dilution assay; conditions: time 18-24 hrs
Staphylococcus aureus [24] = test: Antibacterial activity against methicillin sensitive Staphylococcus aureus assessed as bacterial growth inhibition measured after 18 to 24 hrs by two fold serial dilution assay; conditions: time 18-24 hrs
Klebsiella pneumoniae [25] = test: Antibacterial activity against Klebsiella pneumoniae assessed as bacterial growth inhibition measured after 18 to 24 hrs by two fold serial dilution assay; conditions: time 18-24 hrs
Pseudomonas aeruginosa [26] = test: Antibacterial activity against Pseudomonas aeruginosa assessed as bacterial growth inhibition measured after 18 to 24 hrs by two fold serial dilution assay; conditions: time 18-24 hrs
Staphylococcus aureus [27] = test: Antibacterial activity against ciprofloxacin resistant Staphylococcus aureus assessed as bacterial growth inhibition by broth microdilution assay
Aspergillus niger = test: Antifungal activity against Aspergillus niger assessed as fungal growth inhibition by agar cup diffusion assay
Aspergillus fumigatus = test: Antifungal activity against Aspergillus fumigatus assessed as fungal growth inhibition by agar cup diffusion assay
Candida albicans = test: Antifungal activity against Candida albicans assessed as fungal growth inhibition measured after 24 hrs by agar cup diffusion assay
Staphylococcus aureus [28] = test: Antibacterial activity against methicillin resistant Staphylococcus aureus assessed as bacterial growth inhibition by microdilution assay

Which MIC (Staphylococcus aureus [1]) does the source give for `COc1c(N2CCCC(N(C)C(=O)c3cccnc3)C2)c(F)cc2c(=O)c(C(=O)O)cn(C3CC3)c12` (stereo not drawn) here?
Its MIC is 0.078 µg/mL (≈ 0.158 µM).

What about the MIC (Escherichia coli [2]) of the same compound?
Its MIC is 0.078 µg/mL (≈ 0.158 µM).

`CCn1cc(-c2nnc(S(=O)(=O)Cc3ccc(OC)cc3)o2)c(=O)c2cc(F)c(N3CCN(C)CC3)cc21` was tested. Which zone of inhibition at 50000 µg/mL [3] did it give?
Its zone of inhibition at 50000 µg/mL is 26 mm.

And the zone of inhibition at 50000 µg/mL (Staphylococcus aureus [4])?
Its zone of inhibition at 50000 µg/mL is 26 mm.

And the zone of inhibition at 50000 µg/mL (Escherichia coli [5])?
The zone of inhibition at 50000 µg/mL was 26 mm.

What about the zone of inhibition at 50000 µg/mL (Enterococcus faecalis) of the same compound?
The zone of inhibition at 50000 µg/mL was 26 mm.

What about the zone of inhibition at 50000 µg/mL (Streptococcus pneumoniae) of the same compound?
The zone of inhibition at 50000 µg/mL was 26 mm.

What about the MIC [6] of the same compound?
The MIC was 16.2 µg/mL (≈ 29.9 µM).

What does the source list for `COc1c(N2C[C@@H]3CCCN[C@@H]3C2)c(F)cc2c(=O)c(C(=O)O)cn(C3CC3)c12` [MOXIFLOXACIN]?
MIC (Staphylococcus aureus [1]): 0.078 µg/mL (≈ 0.194 µM); MIC (Escherichia coli [2]): 0.078 µg/mL (≈ 0.194 µM)

`O=C(CSc1nnc(N2CCN(c3cc4c(cc3F)c(=O)c(C(=O)O)cn4C3CC3)CC2)s1)c1ccc([N+](=O)[O-])cc1` was tested. Which Ratio (Staphylococcus aureus [7]) did it give?
Its Ratio is 2.

And the MIC (Staphylococcus aureus [8])?
Its MIC is 1 µg/mL (≈ 1.64 µM).

What about the MIC [9] of the same compound?
Its MIC is 0.5 µg/mL (≈ 0.819 µM).

What about the Ratio [10] of the same compound?
Its Ratio is 2.

And the Ratio [11]?
The Ratio was 3.

How did the MIC (Escherichia coli [12]) turn out when `CCOP(=O)(OCC)C(NS(=O)(=O)Nc1ccccc1OC)c1cc2cccc(C)c2[nH]c1=O` (stereo not drawn) was run?
The MIC was 0.125 µg/mL (≈ 0.245 µM).

What about the MIC (Pseudomonas aeruginosa [13]) of the same compound?
Its MIC is 0.125 µg/mL (≈ 0.245 µM).

What about the MIC (Staphylococcus aureus [14]) of the same compound?
Its MIC is 0.125 µg/mL (≈ 0.245 µM).

And the MIC (Staphylococcus aureus [15])?
The MIC was 0.125 µg/mL (≈ 0.245 µM).

What about the MIC (Escherichia coli [16]) of the same compound?
Its MIC is 0.125 µg/mL (≈ 0.245 µM).

And the MIC (Pseudomonas aeruginosa [17])?
Its MIC is 0.125 µg/mL (≈ 0.245 µM).

What about the MIC (Alternaria) of the same compound?
Its MIC is 0.125 µg/mL (≈ 0.245 µM).

What about the MIC [18] of the same compound?
The MIC was 0.125 µg/mL (≈ 0.245 µM).

For `Cc1[nH]c(C(=O)Nc2nc3ccc(NC(=O)CCN4CCN(c5cc6c(cc5F)c(=O)c(C(=O)O)cn6C5CC5)CC4)cc3s2)c(Cl)c1Cl`, which MIC (Escherichia coli [19]) is on record?
The MIC was 0.004 µg/mL (≈ 0.0055 µM).

And the MIC (Pseudomonas aeruginosa [20])?
Its MIC is 0.25 µg/mL (≈ 0.344 µM).

And the MIC (Acinetobacter baumannii)?
Its MIC is 0.25 µg/mL (≈ 0.344 µM).

And the MIC (Klebsiella pneumoniae [21])?
Its MIC is 0.25 µg/mL (≈ 0.344 µM).

How did the MIC (Pseudomonas aeruginosa [20]) turn out when `O=C1C(=O)N(Cc2cn(CC(=O)N3CCN(c4cc5c(cc4F)c(=O)c(C(=O)O)cn5C4CC4)CC3)nn2)c2ccc(F)cc21` was run?
The MIC was no more than 0.03 µg/mL.

And the MIC (Escherichia coli [22])?
Its MIC is no more than 0.03 µg/mL.

And the MIC (Escherichia coli [23])?
The MIC was no more than 0.03 µg/mL.

What about the MIC (Staphylococcus aureus [24]) of the same compound?
The MIC was no more than 0.03 µg/mL.

What about the MIC (Klebsiella pneumoniae [25]) of the same compound?
Its MIC is no more than 0.03 µg/mL.

What about the MIC (Pseudomonas aeruginosa [26]) of the same compound?
Its MIC is no more than 0.03 µg/mL.

For `CCCCC(=O)N(CCNCCNc1ccc(CN2CCN(c3cc4c(cc3F)CC(C(=O)O)=CN4C3CC3)CC2)cc1)CCN(CCN(CCN(CCN(CCN(CCN(CCN(CCN(CCN(CCN(CCN(CCN(CCN(CCN(CCN(CCN(CCN(CCN(CCN(CCN(CCN(CCN(CCN(CCN(CCN(CCN(CCN(CCN(CCN(CCNC(C)=O)C(C)=O)C(C)=O)C(C)=O)C(C)=O)C(C)=O)C(C)=O)C(C)=O)C(C)=O)C(C)=O)C(C)=O)C(C)=O)C(C)=O)C(C)=O)C(C)=O)C(=O)CCCC)C(=O)CCCC)C(=O)CCCC)C(=O)CCCC)C(=O)CCCC)C(=O)CCCC)C(=O)CCCC)C(=O)CCCC)C(=O)CCCC)C(=O)CCCC)C(=O)CCCC)C(=O)CCCC)C(=O)CCCC)C(=O)CCCC)C(=O)CCCC`, which MIC (Staphylococcus aureus [27]) is on record?
The MIC was 0.62 µg/mL (≈ 0.164 µM).

What does the source list for `CC(=O)N1CCN(c2ccc(OCC3COC(Cn4ccnc4)(c4ccc(Cl)cc4Cl)O3)cc2)CC1` (stereo not drawn) [KETOCONAZOLE]?
MIC (Aspergillus niger): 10.8 µg/mL (≈ 20.3 µM); MIC (Aspergillus fumigatus): 11.4 µg/mL (≈ 21.5 µM); MIC (Candida albicans): 2.6 µg/mL (≈ 4.89 µM)

How did the MIC (Staphylococcus aureus [28]) turn out when `COP(=O)(OC)C(c1cc(C(C)(C)C)c(O)c(C(C)(C)C)c1)N1CCN(c2cc3c(cc2F)c(=O)c(C(=O)O)cn3C2CC2)CC1` (stereo not drawn) was run?
The MIC was 0.5 µg/mL.
